# Measurements as given in PubChem BioAssay AID1963834 (Molecular Pharmacology Branch, DTP, NCI, 2024).
# Tested on: 873145-292-R-J1-PDC complex spheroid viability
# Experiment: Anticancer human tumor 873145-292-R-J1-PDC patient-derived renal clear cell carcinoma cell line growth inhibition [POLQ]
# Settings: for IC50: curve of first compound; for viability, T/C: stronger effect = lower value
# In short: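 Patient-derived tumour cells were co-cultured with HUVEC and mesenchymal stem cells as multicellular spheroids at 37 °C. They were treated with POLQ inhibitors (novobiocin, ART-558, RP6685) alone or combined with other agents. Top concentrations were at or near clinical Cmax (otherwise 10 microM; SN-38 at 1 microM), decreasing in half-log steps.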
# [1] = second compound 0.0316 µM, first compound 0.0316 µM
# [2] = second compound 0.0316 µM, first compound 0.1 µM
# [3] = second compound 0.0316 µM, first compound 0.316 µM
# [4] = second compound 0.0316 µM, first compound 1 µM
# [5] = second compound 0.1 µM, first compound 0.0316 µM
# [6] = second compound 0.1 µM, first compound 0.1 µM
# [7] = second compound 0.1 µM, first compound 0.316 µM
# [8] = second compound 0.1 µM, first compound 1 µM
# [9] = second compound 0.316 µM, first compound 0.0316 µM
# [10] = second compound 0.316 µM, first compound 0.1 µM
# [11] = second compound 0.316 µM, first compound 0.316 µM
# [12] = second compound 0.316 µM, first compound 1 µM
# [13] = second compound 1 µM, first compound 0.0316 µM
# [14] = second compound 1 µM, first compound 0.1 µM
# [15] = second compound 1 µM, first compound 0.316 µM
# [16] = second compound 1 µM, first compound 1 µM
# [17] = second compound 3.16 µM, first compound 0.0316 µM
# [18] = second compound 3.16 µM, first compound 0.1 µM
# [19] = second compound 3.16 µM, first compound 0.316 µM
# [20] = second compound 3.16 µM, first compound 1 µM
# [21] = second compound 10 µM, first compound 0.0316 µM
# [22] = second compound 10 µM, first compound 0.1 µM
# [23] = second compound 10 µM, first compound 0.316 µM
# [24] = second compound 10 µM, first compound 1 µM
# 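Further: spheroids exposed to compounds for 7 days before viability readout.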
# 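Wherever viability, T/C is given: luminescence signal used as surrogate for viable cell content; 100% = DMSO vehicle control viability.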
smiles,measurement,setting,value
CC1COCCN1c1cc(C2(O)CC3CCC(C2)O3)c2cnn(-c3ccn[nH]3)c2n1 (centres undefined) + Cc1cccc(N(C)C(=O)C2C(O)CCN2c2nc(C)cc(C(F)(F)F)c2C#N)c1,IC50,second compound 0.0316 µM,478 nM
same,IC50,second compound 0.1 µM,610 nM
same,IC50,second compound 0.316 µM,405 nM
same,IC50,second compound 1 µM,511 nM
same,IC50,second compound 3.16 µM,378 nM
same,IC50,second compound 10 µM,306 nM
same,"viability, T/C",[1],84.4%
same,"viability, T/C",[2],67.5%
same,"viability, T/C",[3],54%
same,"viability, T/C",[4],44.3%
same,"viability, T/C","second compound 0.0316 µM, first compound 3.16 µM",37.2%
same,"viability, T/C","second compound 0.0316 µM, first compound 10 µM",38%
same,"viability, T/C",[5],93.5%
same,"viability, T/C",[6],76.4%
same,"viability, T/C",[7],57.1%
same,"viability, T/C",[8],43.2%
same,"viability, T/C","second compound 0.1 µM, first compound 3.16 µM",39.5%
same,"viability, T/C","second compound 0.1 µM, first compound 10 µM",32%
same,"viability, T/C",[9],94.5%
same,"viability, T/C",[10],82.5%
same,"viability, T/C",[11],52.5%
same,"viability, T/C",[12],40.4%
same,"viability, T/C","second compound 0.316 µM, first compound 3.16 µM",40.3%
same,"viability, T/C","second compound 0.316 µM, first compound 10 µM",35.9%
same,"viability, T/C",[13],84.8%
same,"viability, T/C",[14],71.6%
same,"viability, T/C",[15],54%
same,"viability, T/C",[16],44.1%
same,"viability, T/C","second compound 1 µM, first compound 3.16 µM",42.1%
same,"viability, T/C","second compound 1 µM, first compound 10 µM",39.8%
same,"viability, T/C",[17],90.1%
same,"viability, T/C",[18],63.1%
same,"viability, T/C",[19],55.6%
same,"viability, T/C",[20],41.3%
same,"viability, T/C","second compound 3.16 µM, first compound 3.16 µM",36.6%
same,"viability, T/C","second compound 3.16 µM, first compound 10 µM",35.6%
same,"viability, T/C",[21],86.2%
same,"viability, T/C",[22],68.8%
same,"viability, T/C",[23],49%
same,"viability, T/C",[24],38.4%
same,"viability, T/C","second compound 10 µM, first compound 3.16 µM",39.5%
same,"viability, T/C","second compound 10 µM, first compound 10 µM",32%
C=CCn1c(=O)c2cnc(Nc3ccc(N4CCN(C)CC4)cc3)nc2n1-c1cccc(C(C)(C)O)n1 + Nc1ccc(C#CCN(C(=O)Cc2ncc(C(F)(F)F)cc2C(F)(F)F)c2ccc(F)cc2)nn1,IC50,second compound 0.0316 µM,> 1000 nM
same,IC50,second compound 0.1 µM,> 1000 nM
same,IC50,second compound 0.316 µM,> 1000 nM
same,IC50,second compound 1 µM,> 1000 nM
same,IC50,second compound 3.16 µM,> 1000 nM
same,IC50,second compound 10 µM,> 1000 nM
same,"viability, T/C","second compound 0.0316 µM, first compound 0.00316 µM",93.8%
same,"viability, T/C","second compound 0.0316 µM, first compound 0.01 µM",110%
same,"viability, T/C",[1],92.7%
same,"viability, T/C",[2],86.6%
same,"viability, T/C",[3],78.5%
same,"viability, T/C",[4],77.3%
same,"viability, T/C","second compound 0.1 µM, first compound 0.00316 µM",106%
same,"viability, T/C","second compound 0.1 µM, first compound 0.01 µM",105%
same,"viability, T/C",[5],86.4%
same,"viability, T/C",[6],100%
same,"viability, T/C",[7],89.2%
same,"viability, T/C",[8],74.1%
same,"viability, T/C","second compound 0.316 µM, first compound 0.00316 µM",91.8%
same,"viability, T/C","second compound 0.316 µM, first compound 0.01 µM",99.1%
same,"viability, T/C",[9],79.5%
same,"viability, T/C",[10],86.4%
same,"viability, T/C",[11],87.8%
same,"viability, T/C",[12],72.9%
same,"viability, T/C","second compound 1 µM, first compound 0.00316 µM",93.5%
same,"viability, T/C","second compound 1 µM, first compound 0.01 µM",95.3%
same,"viability, T/C",[13],94.1%
same,"viability, T/C",[14],88.5%
same,"viability, T/C",[15],90.6%
same,"viability, T/C",[16],69.3%
same,"viability, T/C","second compound 3.16 µM, first compound 0.00316 µM",105%
same,"viability, T/C","second compound 3.16 µM, first compound 0.01 µM",103%
same,"viability, T/C",[17],88.4%
same,"viability, T/C",[18],90.2%
same,"viability, T/C",[19],81.4%
same,"viability, T/C",[20],79.8%
same,"viability, T/C","second compound 10 µM, first compound 0.00316 µM",110%
same,"viability, T/C","second compound 10 µM, first compound 0.01 µM",106%
same,"viability, T/C",[21],108%
same,"viability, T/C",[22],101%
same,"viability, T/C",[23],77.9%
same,"viability, T/C",[24],77.8%
